Measurements published in ChEMBL document CHEMBL5036341, “Design, synthesis and biological evaluation of aminopyrimidine derivatives bearing a 4,5,6,7-tetrahydrothieno [3,2-c]pyridine as potent EGFR inhibitors” (Eur J Med Chem, 2021).
Activity calls are given as the source filed them. The rule behind the calls is not given here.

Experiments:
Homo sapiens [1] = organism: Homo sapiens; assay: Inhibition of EGFR L858R/T790M double mutant (unknown origin) measured at 0.1 uM by ELISA
Homo sapiens [2] = organism: Homo sapiens; assay: Inhibition of EGFR L858R/T790M double mutant (unknown origin) measured at 1 uM by ELISA
A549 [3] = assay: Cytotoxicity against human A549 cells assessed as reduction in cell viability measured by MTT assay; assay type: functional, cell-based
A-431 = assay: Cytotoxicity against human A-431 cells assessed as reduction in cell viability measured by MTT assay; assay type: functional, cell-based
NCI-H1975 = assay: Cytotoxicity against human NCI-H1975 cells assessed as reduction in cell viability measured by MTT assay; assay type: functional, cell-based
[4] = Inhibition of EGFR L858R/T790M double mutant (unknown origin) measured by ELISA; parameters: species or system Homo sapiens
[5] = target: Epidermal growth factor receptor (Homo sapiens, UniProt P00533); assay: Inhibition of wild type EGFR (unknown origin) measured by ELISA
[6] = Inhibition of EGFR L858R/T790M/C797S triple mutant (unknown origin) measured by ELISA; parameters: species or system Homo sapiens
Homo sapiens [7] = organism: Homo sapiens; assay: Selectivity ratio of IC50 for EGFR L858R/T790M double mutant (unknown origin) to IC50 for wildtype EGFR (unknown origin) measured by ELISA
A549 [8] = assay: Inhibition of cell migration in human A549 cells measured after 12 to 36 hours by fluorescence microscopy based wound healing assay; assay type: functional; conditions: dose 1-5 µM, time 12-36 hrs
A549 [9] = assay: Antiproliferative activity against human A549 cells assessed as reduction in cell growth incubated for 24 hrs by AO/EB staining based inverted fluorescence microscopic analysis; assay type: functional; conditions: dose 1-25 µM
A549 [10] = assay: Induction of apoptosis in human A549 cells assessed as chromatin contraction at 25 uM measured after 24 hrs by AO/EB staining based inverted fluorescence microscopic analysis; assay type: functional, cell-based

Sequence of Epidermal growth factor receptor (P00533 whole entry): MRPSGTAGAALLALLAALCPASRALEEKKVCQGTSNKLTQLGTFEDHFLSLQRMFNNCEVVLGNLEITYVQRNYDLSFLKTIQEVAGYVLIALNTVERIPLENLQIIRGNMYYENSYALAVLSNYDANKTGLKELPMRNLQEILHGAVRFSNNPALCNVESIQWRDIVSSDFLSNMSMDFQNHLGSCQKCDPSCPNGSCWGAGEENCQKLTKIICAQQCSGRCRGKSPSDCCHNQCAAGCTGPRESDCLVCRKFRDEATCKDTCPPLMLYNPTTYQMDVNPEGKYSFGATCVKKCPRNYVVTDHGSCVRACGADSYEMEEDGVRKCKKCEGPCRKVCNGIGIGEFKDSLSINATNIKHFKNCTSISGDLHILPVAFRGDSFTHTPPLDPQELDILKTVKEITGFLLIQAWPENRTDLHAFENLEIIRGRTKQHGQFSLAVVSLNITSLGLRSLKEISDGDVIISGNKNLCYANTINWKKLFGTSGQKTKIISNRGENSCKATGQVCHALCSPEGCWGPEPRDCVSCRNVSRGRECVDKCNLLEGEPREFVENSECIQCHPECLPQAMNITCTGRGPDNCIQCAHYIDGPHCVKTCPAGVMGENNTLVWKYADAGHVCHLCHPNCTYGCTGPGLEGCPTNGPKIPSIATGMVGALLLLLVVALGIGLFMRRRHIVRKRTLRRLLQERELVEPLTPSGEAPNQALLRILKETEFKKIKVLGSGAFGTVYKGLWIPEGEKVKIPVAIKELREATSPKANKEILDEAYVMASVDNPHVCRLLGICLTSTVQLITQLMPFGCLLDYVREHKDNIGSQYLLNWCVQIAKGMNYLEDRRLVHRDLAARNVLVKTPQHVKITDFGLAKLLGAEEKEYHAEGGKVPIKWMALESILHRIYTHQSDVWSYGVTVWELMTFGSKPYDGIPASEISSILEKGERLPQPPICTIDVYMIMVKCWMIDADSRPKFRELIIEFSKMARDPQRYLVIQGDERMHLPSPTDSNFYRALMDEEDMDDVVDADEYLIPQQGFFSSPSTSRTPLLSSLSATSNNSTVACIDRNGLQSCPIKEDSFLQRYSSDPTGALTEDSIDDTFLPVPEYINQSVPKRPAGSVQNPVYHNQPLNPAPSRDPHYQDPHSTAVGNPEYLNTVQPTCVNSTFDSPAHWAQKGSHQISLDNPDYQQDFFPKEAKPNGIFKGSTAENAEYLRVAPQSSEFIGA

Compound | inhibition (Homo sapiens [1]) | inhibition (Homo sapiens [2]) | IC50 (A549 [3]) | IC50 (A-431) | IC50 (NCI-H1975) | other results
C=CC(=O)Nc1cc(Nc2ncc(Cl)c(N3CCc4sccc4C3)n2)c(OC)cc1N1CCN(C)CC1 | – | – | 1560 nM | > 50000 nM | 197 nM | IC50 [4]: 294 nM; IC50 [5]: > 4000 nM; IC50 [6]: 659 nM; Ratio IC50 (Homo sapiens [7]): > 13.6
C/C=C/C(=O)Nc1cc(Nc2ncc(Cl)c(N3CCc4sccc4C3)n2)c(OC)cc1N(C)CCN(C)C | – | – | 251 nM | 152 nM | 133 nM | IC50 [4]: 12.1 nM; IC50 [5]: 353 nM; Ratio IC50 (Homo sapiens [7]): 2.9
C=CC(=O)Nc1ccc(OC)c(Nc2ncc(Cl)c(N3CCc4sccc4C3)n2)c1 | – | – | 6910 nM | 90900 nM | 786 nM | –
CCC(=O)Nc1cc(Nc2nccc(N3CCc4sccc4C3)n2)c(OC)cc1N(C)CCN(C)C | 67.7% | 82.2% | – | – | – | –
C=CC(=O)Nc1cc(Nc2nccc(N3CCc4sccc4C3)n2)c(OC)cc1N(C)C | 2.3% | 18.2% | – | – | – | –
CCC(=O)Nc1ccc(OC)c(Nc2ncc(Cl)c(N3CCc4sccc4C3)n2)c1 | – | – | 31300 nM | > 200000 nM | 15200 nM | –
C=CC(=O)Nc1cc(Nc2nccc(N3CCc4sccc4C3)n2)c(OC)cc1N(C)CCN(C)C | 54.1% | 76.3% | – | – | – | –
C=C(Cl)C(=O)Nc1cc(Nc2ncc(Cl)c(N3CCc4sccc4C3)n2)c(OC)cc1N(C)CCN(C)C | – | – | 654 nM | 13700 nM | 92 nM | inhibition (A549 [8]): Dose-Dependent Effect; IC50 [4]: 3.6 nM; IC50 [5]: 96.3 nM; IC50 [6]: 466 nM; Activity (A549 [9]): Dose-Dependent Effect; Activity (A549 [10]): Active; Ratio IC50 (Homo sapiens [7]): 26.7

Further lines, with some results ahead:

inhibition (Homo sapiens [1]) | inhibition (Homo sapiens [2]) | Compound | IC50 (A549 [3]) | IC50 (A-431) | IC50 (NCI-H1975) | other results
14.9% | 43.5% | C=CC(=O)Nc1cc(Nc2nccc(N3CCc4sccc4C3)n2)c(OC)cc1N1CCCC1 | – | – | – | –
20.9% | 69.7% | COc1cc(NC(=O)CN(C)CCN(C)C)ccc1Nc1nccc(N2CCc3sccc3C2)n1 | – | – | – | –
5% | 22.5% | COc1cc(NC(=O)CN(C)C)ccc1Nc1nccc(N2CCc3sccc3C2)n1 | – | – | – | –
20.9% | 50.6% | C=CC(=O)Nc1cc(Nc2nccc(N3CCc4sccc4C3)n2)c(OC)cc1N1CCOCC1 | – | – | – | –
33.5% | 56.5% | C=CC(=O)Nc1cc(Nc2nccc(N3CCc4sccc4C3)n2)c(OC)cc1N1CCN(C)CC1 | – | – | – | –
10.9% | 45.2% | COc1cc(NC(=O)CN2CCN(CCO)CC2)ccc1Nc1nccc(N2CCc3sccc3C2)n1 | – | – | – | –
